Results as given in patent US20120283216A1, “FUNGICIDAL 2-(BICYCLIC ARYLOXY)CARBOXAMIDES” (priority 2009, published 2012).

Experiments:
Assay type in all cases: in vivo
[1] = test system: Blumeria graminis f. sp. tritici; assay: Test A: wheat powdery mildew, preventive spray on wheat seedlings, visual disease rating; details: preventive spray at 40 ppm, rated 8 days after inoculation; for pest or weed control at 40 ppm: Blumeria graminis, 192 h, read-out: Test A disease control rating (100 = 100% disease control, 0 = no disease control relative to the controls)
Text: General protocol for preparing test suspensions for Tests A-C: the test compounds were first dissolved in acetone in an amount equal to 11% of the final volume and then suspended at the desired concentration (in ppm) in acetone and purified water (50/50 mix by volume) containing 250 ppm of the surfactant Trem® 014 (polyhydric alcohol esters). The resulting test suspensions were then used in Tests A-C. Spraying a 40 ppm test suspension to the point of run-off on the test plants was the equivalent of a rate of 800 g/ha. The test suspension was sprayed to the point of run-off on wheat seedlings. The following day the seedlings were inoculated with a spore dust of Blumeria graminis f. sp. tritici, (the causal agent of wheat powdery mildew) and incubated in a growth chamber at 20° C. for 8 days, after which time disease ratings were visually made. Results for Tests A-C are given in Table A. In the Table, a rating of 100 indicates 100% disease control and a rating of 0 indicates no disease control (relative to the controls). A dash (-) indicates no test results. All results are from applications of 40 ppm.

[2] = test system: Septoria tritici; assay: Test B: wheat leaf blotch, preventive spray on wheat seedlings, visual disease rating; details: preventive spray at 40 ppm, rated after 48 h + 19 days; for pest or weed control at 40 ppm: Zymoseptoria tritici, 504 h, read-out: Test B disease control rating (100 = 100% disease control, 0 = no disease control relative to the controls)
Text: General protocol for preparing test suspensions for Tests A-C: the test compounds were first dissolved in acetone in an amount equal to 11% of the final volume and then suspended at the desired concentration (in ppm) in acetone and purified water (50/50 mix by volume) containing 250 ppm of the surfactant Trem® 014 (polyhydric alcohol esters). The resulting test suspensions were then used in Tests A-C. Spraying a 40 ppm test suspension to the point of run-off on the test plants was the equivalent of a rate of 800 g/ha. The test suspension was sprayed to the point of run-off on wheat seedlings. The following day the seedlings were inoculated with a spore suspension of Septoria tritici (the causal agent of wheat leaf blotch) and incubated in a saturated atmosphere at 20° C. for 48 h, and then moved to a growth chamber at 20° C. for 19 days, after which time disease ratings were visually made. Results for Tests A-C are given in Table A. In the Table, a rating of 100 indicates 100% disease control and a rating of 0 indicates no disease control (relative to the controls). A dash (-) indicates no test results. All results are from applications of 40 ppm.

[3] = test system: Botrytis cinerea; assay: Test C: tomato botrytis, preventive spray on tomato seedlings, visual disease rating; details: preventive spray at 40 ppm, rated after 48 h + 3 days; for pest or weed control at 40 ppm: Botrytis cinerea, 120 h, read-out: Test C disease control rating (100 = 100% disease control, 0 = no disease control relative to the controls)
Text: General protocol for preparing test suspensions for Tests A-C: the test compounds were first dissolved in acetone in an amount equal to 11% of the final volume and then suspended at the desired concentration (in ppm) in acetone and purified water (50/50 mix by volume) containing 250 ppm of the surfactant Trem® 014 (polyhydric alcohol esters). The resulting test suspensions were then used in Tests A-C. Spraying a 40 ppm test suspension to the point of run-off on the test plants was the equivalent of a rate of 800 g/ha.
The test suspension was sprayed to the point of run-off on tomato seedlings. The following day the seedlings were inoculated with a spore suspension of Botrytis cinerea (the causal agent of tomato botrytis) and incubated in saturated atmosphere at 20° C. for 48 h, and then moved to a growth chamber at 27° C. for 3 additional days, after which time disease ratings were visually made.
Results for Tests A-C are given in Table A. In the Table, a rating of 100 indicates 100% disease control and a rating of 0 indicates no disease control (relative to the controls). A dash (-) indicates no test results. All results are from applications of 40 ppm.

Compound	Test A disease control rating (100 = 100% disease control, 0 = no disease control relative to the controls) [1]	Test B disease control rating (100 = 100% disease control, 0 = no disease control relative to the controls) [2]	Test C disease control rating (100 = 100% disease control, 0 = no disease control relative to the controls) [3]	pest or weed control at 40 ppm [1]	pest or weed control at 40 ppm [2]	pest or weed control at 40 ppm [3]
CCC(Oc1ccc2ccc(Br)cc2c1)C(=O)NC(C)(C)CC (stereo not drawn) [Compound 102]	0%	96%	61%			
COCC(C)(C)NC(=O)C(OC)Oc1ccc2ccc(OC)cc2c1 (stereo not drawn) [Compound 83]	96%	99%	100%			
C#CCOc1ccc2ccc(OC(OC)C(=O)NC(C)(C)C)cc2c1 (stereo not drawn) [Compound 131]	68%	100%	100%			
C#Cc1ccc2ncc(OC(OC)C(=O)NC(C)(C)C)cc2c1 (stereo not drawn) [Compound 163]	99%	100%	100%			
C#CCOc1ccc2ccc(OC(OC)C(=O)NC(C)(C)CC)cc2c1 (stereo not drawn) [Compound 137]	87%	94%	99%			
CCC(Oc1ccc2ccc(C#N)cc2c1)C(=O)NC(C)(C)C (stereo not drawn) [Compound 33]				62%	99%	95%
C#CCOc1ccc2ccc(OC(OC)C(=O)NC(C)(C)C#C)cc2c1 (stereo not drawn) [Compound 132]	13%	99%	100%			
CCC(Oc1ccc2ccc(Br)cc2c1)C(=O)NC(C)(C)COC (stereo not drawn) [Compound 7, 2-[(7-bromo-2-naphthalenyl)oxy]-N-(2-methoxy-1,1-dimethylethyl)butanamide]				100%	99%	99%
COCC(C)(C)NC(=O)C(C)Oc1cnc2ccc(I)cc2c1 (stereo not drawn) [Compound 59, 2-[(6-iodo-3-quinolinyl)oxy]-N-(2-methoxy-1,1-dimethylethyl)propanamide]				0%	95%	99%
C#CC(CC)(CC)NC(=O)C(CC)Oc1ccc2ccc(OC)cc2c1 (stereo not drawn) [Compound 86]	0%	19%	19%			
C#CC(C)(C)NC(=O)C(CC)Oc1cnc2ccc(OC)cc2c1 (stereo not drawn) [Compound 147]	0%	99%	99%			
CCC(Oc1ccc2ccc(N)cc2c1)C(=O)NC(C)(C)C (stereo not drawn) [Compound 29]				0%	76%	95%
C#CC(C)(C)NC(=O)C(CC)Oc1ccc2ccc(CC)cc2c1 (stereo not drawn) [Compound 141]	97%	80%	100%			
CCC(Oc1ccc2ccc(OC)cc2c1)C(=O)NC(C)(C)C(=O)OC (stereo not drawn) [Compound 84]	0%	84%	100%			
CCC(Oc1ccc2ccc(I)cc2c1)C(=O)NC(C)(C)COC (stereo not drawn) [Compound 92]	100%	100%	100%			
CCC(Oc1ccc2ccc(C#C[Si](C)(C)C)cc2c1)C(=O)NC(C)(C)COC (stereo not drawn) [Compound 96]	0%	100%	99%			
CCCOc1ccc2ccc(OC(OC)C(=O)NC(C)(C)C)cc2c1 (stereo not drawn) [Compound 125]	92%	100%	98%			
CCC(Oc1ccc2ccc(SC)cc2c1)C(=O)NC(C)(C)COC (stereo not drawn) [Compound 91]	97%	100%	100%			
C#CC(C)(C)NC(=O)C(OC)Oc1ccc2ccc(C(F)F)cc2c1 (stereo not drawn) [Compound 80]	0%	93%	100%			
C#CC(C)(C)NC(=O)C(OC)Oc1ccc2ccc(OCCC)cc2c1 (stereo not drawn) [Compound 126]	72%	99%	99%			
C#CC(C)(C)NC(=O)C(CC)Oc1ccc2ccc(OCOC)cc2c1 (stereo not drawn) [Compound 73]	0%	100%	99%			
C#CC(C)(C)NC(=O)C(CC)Oc1ccc2ccc(OC)cc2c1 (stereo not drawn) [Compound 4]	97%	100%	100%			
CCC(Oc1ccc2ccc(Br)cc2c1)C(=O)NC(C)(C)CNC=O (stereo not drawn) [Compound 11]	21%	99%	100%			
CCC(Oc1ccc2ccc(Br)cc2c1)C(=O)NN(C)C (stereo not drawn) [Compound 9]				69%	99%	99%
CCC(Oc1ccc2ccc(OC)cc2c1)C(=O)NC(C)(C)C#N (stereo not drawn) [Compound 87]	0%	100%	100%			
COCC(C)(C)NC(=O)C(C)Oc1ccc2ccc(C#N)cc2c1 (stereo not drawn) [Compound 25]	47%	96%	99%			
